Assay results reported in patent US9200008B2 (ASKA PHARMACEUTICAL CO., LTD., priority 2010, dated 2015).

system: Human prostate cancer cell lines (PC-3 cells); assay: Measurement of cell death-inducing activity (Test Example 1); assay type: cell-based; conditions: PC-3, 48 h, 48 hours after addition, tested at 10, 1, 0.1, 0.025 and 0.00625 μmol/L, qualitative evaluation of 10 fields, read-out: Concentration showing the cell death-inducing activity (cell death-inducing rate not less than 40%)
Method: The cell death-inducing activity of the compound represented by the formula (1) or the salt thereof was measured as follows.
Human prostate cancer cell lines (PC-3 cells) were seeded to 6-well plates at 1×10^5 cells/2 mL/well, and cultured in the presence of 5% CO2 at 37° C. for 48 hours. Thereafter, each compound was added thereto so as to provide 10, 1, 0.1, 0.025 and 0.00625 μmol/L. As a control, DMSO was added. After the addition, the cells were continuously cultured for 48 hours. […] When the cell death-inducing rate was not less than 40%, the compound was judged to have the cell death-inducing activity.

In order of falling minimal effective concentration:
1. CCN(Cc1ccc(OC)cc1)NC(=O)c1sc(-c2cccc(C)c2C)nc1C [Example 16-14]  10 µM
2. CCCCCCOc1ccc(/C=N/NC(=O)c2sc(-c3ccc(Cl)cc3)nc2C)cc1O [Example 23-105]  10 µM
3. O=C(N/N=C/c1ccc(O)cc1Cl)c1cc(-c2ccc(Cl)cc2Cl)n[nH]1 [Example 21-8]  10 µM
4. O=C(N/N=C/c1ccc2c(c1)nc1n2CCOC1)c1cc(-c2ccc(Cl)cc2Cl)ns1 [Example 49-3]  10 µM
5. COc1ccc(CN(C)NC(=O)c2sc(-c3cccc(C)c3C)nc2C)cc1 [Example 16-5]  10 µM
6. Cc1ccc(-c2nc(C)c(NC(=O)OCc3ccc4c(c3)CCO4)s2)c(C)c1 [Example 9-8]  10 µM
7. Cc1cc(/C=N/NC(=O)c2sc(-c3ccc(Cl)cc3)nc2C(F)(F)F)cc(C)c1O [Example 23-19]  10 µM
8. Cc1nc(-c2ccc(Cl)cc2)sc1C(=O)N/N=C/c1ccc2c(c1)CCO2 [Example 23-152]  10 µM
9. Cc1ccc(-c2nc(C)c(NC(=O)OCc3ccc4c(c3)nc3n4CCN(C)C3)s2)c(C)c1 [Example 38-3, [2-(2,4-Dimethylphenyl)-4-methylthiazol-5-yl]carbamic acid 2-methyl-1,2,3,4-tetrahydrobenzo[4,5]imidazo[1,2-a]pyrazin-8-ylmethyl ester]  10 µM
10. COc1ccc(CN(C)NC(=O)c2cc(-c3ccc(Cl)cc3OC)ns2)cc1 [Example 19-1, 3-(4-Chloro-2-methoxyphenyl)isothiazole-5-carboxylic acid N′-(4-methoxybenzyl)-N′-methyl hydrazide]  10 µM
11. Cn1nc(-c2ccccc2)cc1NC(=O)OCc1ccc2c(c1)ncn2C [Example 9-204]  10 µM
12. CCn1nc(-c2ccccc2OC)cc1COC(=O)Nc1ccc2c(cnn2C)c1 [Example 13-124]  10 µM
13. Cc1cc(Cl)ccc1-c1nc(C)c(NC(=O)OCc2ccc3c(c2)nc2n3C(C)CCC2)s1 (centres unmarked) [Example 9-119]  10 µM
14. Cc1cc(/C=N/NC(=O)c2cnc(-c3ccccc3C)[nH]2)ccc1O [Example 25-4, 2-(2-Methylphenyl)-3H-imidazole-4-carboxylic acid[1-(4-hydroxy-3-methylphenyl)methylidene]hydrazide]  10 µM
15. CCn1nc(-c2ccc(Cl)cc2Cl)cc1NC(=O)OCc1ccc2c(cnn2C)c1 [Example 9-276]  1 µM
16. Cc1cc(Cl)ccc1-c1nc(C)c(NC(=O)OCc2ccc3c(ccn3C)c2)s1 [Example 9-31]  1 µM
17. COc1ccc(/C=N/NC(=O)c2sc(-c3cccc(OC)c3C)nc2C)cc1O [Example 23-130]  1 µM
18. COc1ccc(-c2nc(C)c(C(=O)N/N=C/c3cc(C)c(O)c(C)c3)s2)cc1 [Example 23-104]  1 µM
19. Cc1cc(/C=N/NC(=O)c2cc(-c3ccc(Cl)cc3Cl)ns2)cc(C)c1O [Example 27-4]  1 µM
20. Cc1ccc(-c2nc(C)c(NC(=O)OCc3ccc4c(c3)nc3n4CCC(C)C3)s2)c(C)c1 (centres unmarked) [Example 9-122]  1 µM
21. COc1cc(F)ccc1-c1cc(NC(=O)OCc2ccc3c(c2)nc2n3CCCC2)n(C)n1 [Example 9-265]  1 µM
22. COCc1nc2cc(COC(=O)Nc3cc(-c4ccc(Cl)cc4OC)nn3C)ccc2n1C [Example 9-274]  1 µM
23. COc1ccc(/C=N/NC(=O)c2sc(-c3ccc(Cl)cc3)nc2C)cc1B(O)O [Example 23-140]  1 µM
24. CCc1nc(-c2ccc(C)cc2C)sc1NC(=O)OCc1ccc2c(c1)nc1n2CCCC1 [Example 9-354]  1 µM
25. COc1ccccc1-c1cc(NC(=O)OCc2ccc3c(c2)nc2n3CCC2)n(C)n1 [Example 9-254]  1 µM
26. COc1ccc(/C=N/NC(=O)c2sc(-c3csc4ccccc34)nc2C)cc1O [Example 23-38]  1 µM
27. COc1ccc(CN(C)NC(=O)c2sc(-c3ccc(F)cc3OC)nc2C)cc1 [Example 16-8]  0.1 µM
28. CCc1nc(-c2ccc(C)cc2OC)sc1NC(=O)OCc1ccc2c(c1)nc(C)n2C [Example 9-374]  0.1 µM
29. COc1ccc(/C=N/NC(=O)c2sc(-c3ccccc3OC)nc2C)cc1B(O)O [Example 23-160]  0.1 µM
30. CCc1nc(-c2ccc(Cl)cc2C)sc1NC(=O)OCc1ccc2c(c1)nc(C)n2C [Example 9-376]  0.1 µM
31. CCc1nc(-c2ccc(Cl)cc2OC)sc1COC(=O)Nc1ccc2c(c1)ncn2C [Example 13-67]  0.1 µM
32. COc1cc(Cl)ccc1-c1nc(C)c(NC(=O)OCc2ccc3c(c2)nc2n3CCC(C)C2)s1 (centres unmarked) [Example 9-120]  0.1 µM
33. COc1ccc(CN(C)NC(=O)c2sc(-c3ccc(Cl)cc3OC)nc2C)cc1O [Example 16-24]  0.1 µM
34. Cc1nc(-c2ccc(F)cc2F)sc1NC(=O)OCc1ccc2c(c1)ncn2C [Example 9-46]  0.1 µM
35. CCn1nc(-c2ccc(C)cc2C)cc1NC(=O)OCc1ccc2c(cnn2C)c1 [Example 9-286]  0.1 µM
36. COc1ccccc1-c1nc(C)c(C(=O)N/N=C/c2ccc(N(C)C)cc2)s1 [Example 23-88]  0.1 µM
37. COc1ccccc1-c1cc(NC(=O)OCc2ccc3c(c2)nc2n3CCOC2)n(C)n1 [Example 9-243]  0.1 µM
38. COc1cc(Cl)ccc1-c1nscc1NC(=O)OCc1ccc2c(c1)ncn2C [Example 45-5]  0.1 µM
39. CCCOc1ccccc1-c1nc(C)c(C(=O)N/N=C/c2ccc(OC)cc2)s1 [Example 23-149]  0.1 µM
40. CCn1nc(-c2ccc(C)cc2OC)cc1NC(=O)OCc1ccc2c(cnn2C)c1 [Example 9-284]  0.1 µM
41. COc1ccccc1-c1nc(C)c(C(=O)N/N=C/c2ccc3ccn(C)c3c2)s1 [Example 23-93]  0.1 µM
42. COc1cc(F)ccc1-c1cc(NC(=O)OCc2ccc3c(c2)nc2n3CCC2)n(C)n1 [Example 9-256]  0.1 µM
43. Cc1ccc(-c2nc(C)c(NC(=O)OCc3ccc4c(c3)ncn4C)s2)cc1 [Example 9-35]  0.1 µM
44. CCn1nnc2cc(COC(=O)Nc3sc(-c4ccccc4OC)nc3C)ccc21 [Example 9-22]  0.025 µM
45. COc1ccccc1-c1nc(C)c(NC(=O)OCc2ccc3c(c2)nc2n3CCOC2)s1 [Example 9-91]  0.025 µM
46. CCc1nc(-c2ccc(C)cc2OC)sc1NC(=O)OCc1ccc2c(c1)nc1n2CCC1 [Example 9-171]  0.025 µM
47. Cc1nc(-c2ccc(F)cc2Cl)sc1COC(=O)Nc1ccc2c(c1)ncn2C [Example 13-11]  0.025 µM
48. CCn1cnc2cc(NC(=O)OCc3sc(-c4ccc(F)cc4Cl)nc3C)ccc21 [Example 13-18]  0.025 µM
49. COc1cc(C)ccc1-c1nc(C)c(NC(=O)OCc2ccc3c(c2)nc(C)n3C)s1 [Example 9-77]  0.025 µM
50. CCc1nc(-c2ccc(F)cc2OC)sc1NC(=O)OCc1ccc2c(cnn2CC)c1 [Example 9-360]  0.025 µM
51. CCc1nc(-c2ccc(F)cc2C)sc1NC(=O)OCc1ccc2c(c1)ncn2CC [Example 9-167]  0.025 µM
52. Cc1cc(Cl)ccc1-c1nc(C)c(NC(=O)OCc2ccc3c(c2)nc2n3CCC2)s1 [Example 9-107]  0.025 µM
53. COc1ccccc1-c1nc(C)c(C(=O)N/N=C/c2ccc3c(ccn3C)c2)s1 [Example 23-92]  0.025 µM
54. COc1ccccc1-c1cc(NC(=O)OCc2ccc3c(c2)ncn3C)n(C)n1 [Example 9-213]  0.025 µM
55. Cc1cc(F)ccc1-c1nc(C)c(COC(=O)Nc2ccc3c(c2)ncn3C)s1 [Example 13-9]  0.025 µM
56. Cc1ccc(-c2nc(C)c(NC(=O)OCc3ccc4c(c3)nc(C)n4C)s2)c(C)c1 [Example 9-78]  0.025 µM
57. CCn1nnc2cc(COC(=O)Nc3sc(-c4ccc(F)cc4OC)nc3C)ccc21 [Example 9-23]  0.025 µM
58. Cc1ccc(-c2cc(NC(=O)OCc3ccc4c(c3)nc3n4CCC3)n(C)n2)c(C)c1 [Example 9-260]  0.025 µM
59. CCn1ncc2cc(COC(=O)Nc3sc(-c4ccccc4OC)nc3C)ccc21 [Example 9-134]  0.025 µM
60. Cc1cc(F)ccc1-c1nc(C)c(COC(=O)Nc2ccc3c(c2)nc2n3CCCC2)s1 [Example 13-34]  0.025 µM
61. COc1cc(Cl)ccc1-c1nc(C)c(NC(=O)OCc2ccc3c(c2)ncn3C)s1 [Example 9-39]  0.00625 µM
62. Cc1cc(Cl)ccc1-c1nc(C)c(NC(=O)OCc2ccc3c(c2)nc2n3CCOC2)s1 [Example 9-98]  0.00625 µM
63. CCn1cnc2cc(NC(=O)OCc3cc(-c4ccc(Cl)cc4OC)nn3C)ccc21 [Example 13-86]  0.00625 µM
64. COc1cc(C)ccc1-c1cc(NC(=O)OCc2ccc3c(c2)nc2n3CCOC2)n(C)n1 [Example 9-249]  0.00625 µM
65. CCn1cnc2cc(COC(=O)Nc3sc(-c4ccc(F)cc4C)nc3C)ccc21 [Example 9-63]  0.00625 µM
66. COc1cc(Cl)ccc1-c1cc(COC(=O)Nc2ccc3c(c2)nc2n3CCC2)n(C)n1 [Example 13-108]  0.00625 µM
67. Cc1cc(F)ccc1-c1nc(C)c(NC(=O)OCc2ccc3c(c2)ncn3C)s1 [Example 9-48]  0.00625 µM
68. COc1cc(Cl)ccc1-c1nc(C)c(NC(=O)OCc2ccc3c(c2)nc2n3CCOC2)s1 [Example 9-93]  0.00625 µM
